Assay results from patent US10383948B2, “Anti-cMet antibody drug conjugates and methods for their use” (AbbVie Inc., priority 2016, dated 2019).

Tests used:
[1] = patients; cited from earlier work
NCI-H441 = assay: Cytotoxicity assay (CellTiter-Glo, 6 days); type: cell-based, human; conditions: NCI-H441, without MET amplification; FIG. 4D
Description: (§1) Tumor cells were plated at 2000-5000 cells/well in 180 μL growth medium containing 10% FBS in 96-well plates, and cultured at 37° C. in a humidified incubator with 5% C02. The following day, titrations of antibodies or ADCs in 20 μL were added and cells were incubated for 6 days. Cell viability was determined using a CellTiter-Glo Luminescent Cell Viability Assay (Promega) according to the manufacturer's instructions. A non-binding, irrelevant negative control ADC conjugated to MMAE was also included in all assays to confirm that cell killing was antigen dependent.
as §1, with “of” for “of antibodies or”, “antigen-dependent.” for “antigen dependent.”

Hs746T = assay: Cytotoxicity assay (CellTiter-Glo, 6 days); type: cell-based, human; conditions: MET-amplified Hs746T gastric cancer cells; FIG. 4
Description: as §1
as §1, with “of” for “of antibodies or”, “antigen-dependent.” for “antigen dependent.”

NCI-H820 = assay: Cytotoxicity assay (CellTiter-Glo, 6 days); type: cell-based, human; conditions: NCI-H820, without MET amplification; FIG. 4C
Description: as §1, with “instructions.” for “instructions. A non-binding, irrelevant negative control ADC conjugated to MMAE was also included in all assays to confirm that cell killing was antigen dependent.”
as §1, with “of” for “of antibodies or”, “instructions.” for “instructions. A non-binding, irrelevant negative control ADC conjugated to MMAE was also included in all assays to confirm that cell killing was antigen dependent.”

SNU-5 = assay: Cytotoxicity assay (CellTiter-Glo, 6 days); type: cell-based, human; conditions: MET-amplified SNU-5 gastric cancer cells; FIG. 4
Description: as §1

[2] = test system: Hs746T gastric cancer xenografts; assay: Hs746T xenograft efficacy; conditions: parental Hs746T xenografts, initial treatment; FIG. 12A
Description: Female SCID, SCID-Beige and nude mice were obtained from Charles River (Wilmington, Mass.) and housed at ten mice per cage. The body weight upon arrival was 20-22 g. Food and water were available ad libitum. Mice were acclimated to the animal facilities for a period of at least one week prior to commencement of experiments. Animals were tested in the light phase of a 12-hr light: 12-hr dark schedule (lights on at 06:00 hours).
Each experimental group included 8-10 animals.
Tumor volumes are depicted as mean±S.E.M.

[3] = test system: Hs746T ABT-700R xenografts; assay: ABT-700-refractory xenograft efficacy; type: in vivo, mice; conditions: Hs746T ABT-700R xenografts; FIG. 12B

Substance | dose not tolerated [1] | dose tolerated [1] | inhibition of proliferation (NCI-H441) | inhibition of proliferation (Hs746T) | inhibition of proliferation (NCI-H820) | inhibition of proliferation (SNU-5) | tumor response [2] | tumor response [3]
brentuximab vedotin: Seattle Genetics MMAE ADC with an approximate DAR of 4 | 2.7 mg/kg | – | – | – | – | – | – | –
DCDT2980S: an MMAE ADC targeting CD22 | 3.2 mg/kg | 2.4 mg/kg | – | – | – | – | – | –
ABT-700: humanized recombinant IgG1 kappa anti-cMet antibody, humanized version of mouse monoclonal antibody 224G11 | – | – | not cell lines without MET amplification | inhibited proliferation of cells with MET amplification | not cell lines without MET amplification | inhibited proliferation of cells with MET amplification | tumor stasis followed by relapse | refractory to ABT-700 treatment with quick tumor outgrowth on therapy
